System: type I, type II, and type III TGF-β receptors
Assay: 125I-TGF-β1-affinity labeling of other cell-surface TGF-β receptor types in mink lung epithelial cells
Format: binding
Settings: peptide at 2.3 μM
Description: ^125I-TGF-β1-affinity labeling of cell-surface TGF-β receptors in mink lung epithelial cells. Mink lung epithelial cells grown on 60-mm Petri dishes were incubated with 0.1 nM […] the presence of various concentrations of peptide β1^25 (41-65) or peptide β3^25 (41-65) in binding buffer. After 2.5 hr at 0° C., ^125I-TGF-β1-affinity labeling was carried out in the presence of DSS as described. The ^125I-TGF-β1-affinity-labeled TGF-β receptors were analyzed by 5% SDS-polyacrylamide gel electrophoresis under reducing conditions and autoradiography.

Sequence: ANFCLGPCPYIWSLDTQYSKVLALY [peptide β1^25 (41-65)]
- inhibition of 125I-TGF-β1-affinity labeling of other TGF-β receptor types: 30-40%
